Non-standard residues stand in square brackets, D forms with d. Residues, ends and D or L forms follow the SMILES beside them. *: point of attachment. Tos = Cc1ccc(S(=O)(=O)*)cc1; OBn = c1ccc(CO*)cc1; Sar = CNCC(=O)O

Consider `COC(=O)C1=C(C)NC(C)=C(C(=O)OCCCBr)C1c1cccc([N+](=O)[O-])c1` (centres undefined), for which the melting point (as a rule, the temperature, or range, at which the solid turns liquid) is 112 to 114 °C.
In the case of `Cc1nc2cc(-c3ccccc3)nn2c2c1CCN2C(C)(C)C`, the melting point was 244 to 248 °C.
The value for `CC(NC(=O)c1cccc([N+](=O)[O-])c1)C(F)(F)F` (centres undefined) was 130 to 131 °C; that for `CCCCCC1OCc2cc(C#N)ccc2O1` (centres undefined) was 40.5 to 41 °C; that for `CCC(Oc1ccc(Cl)c(C(F)(F)F)c1)C(=O)NCc1ccccc1` (centres undefined) was 93 to 95 °C.
Compound `CSc1ccc(CC2C(C)=Cc3cc(F)ccc32)cc1` (centres undefined) displayed a melting point of 58 to 59 °C.
Take `COc1c(-c2cc3c(s2)CCCC3O)ccc2c(=O)c(C(=O)O)cn(C3CC3)c12` (centres undefined): the melting point was 237 to 239 °C.
The compound `CC(c1cccnn1)c1cccc(Cl)c1Cl` (centres undefined) had a melting point of 96 to 98 °C.
`CC(C)(C)c1cc(C=C2SCN(CCN)C2=O)cc(C(C)(C)C)c1O` came in with a melting point of 176 to 178 °C.
With `CCc1nc2c(N)nc3cc(OCCNC(C)=O)ccc3c2n1CC1CCOCC1`, the melting point is 165 to 167 °C.
With `Cc1sc(-c2cc([N+](=O)[O-])cc([N+](=O)[O-])c2)nc1O`, the melting point lay in the range of 247 to 248 °C.
With `COc1ccc(-c2n[nH]c3c2Cc2ccccc2-3)cc1`, the melting point amounted to 247 °C.
The value for `COC(=O)c1ccc(C(=O)NCC(C)C)c([N+](=O)[O-])c1` was 90 to 91 °C; that for `Cc1ccc(S(=O)(=O)On2nnc3ccc(Cl)cc32)cc1` was 94 to 96 °C; that for `CC(C)(C)OC(=O)/C=C/c1cc2ncc(C#N)c(Cl)c2s1` was 193 to 194 °C.
For the compound `O=C1NCCNN1c1cc(Cl)c(Sc2ccc(Cl)cc2)c(Cl)c1`, the melting point fell in the range of 242 to 243 °C.
`COc1cc(N2CCN(C[C@H](C)O)CC2)ccc1Nc1ncc2ccc(-c3ccccc3S(C)(=O)=O)n2n1`: the melting point is 98 to 100 °C.
`CCCCN1C(N)=NS(=O)(=O)NC1Oc1cccc(C)c1` (centres undefined) gave a melting point of 217 to 219 °C.
Take `CC1(C)C2CCC(C2)C1CCC(O)CCC1C2CCC(C2)C1(C)C` (centres undefined): the melting point lay in the range of 55 to 56 °C.
On to `CNC(=O)c1cc(-c2ccc(OC)cc2)nn(CC(=O)NCc2ccccn2)c1=O`, for which the melting point lay within 195 to 196 °C.
The value for `CCOC(=O)CC(C)NC(=O)c1ccc(N2CCN(c3ccncc3)CC2)cc1` (centres undefined) was 130 to 132 °C.
The compound `c1ccc(N2CCN(Cc3n[nH]c4ccccc34)CC2)cc1` returned a melting point of 196 to 197 °C.
The compound `Cc1ccc(S(=O)(=O)N(C)CC(=O)N[C@@H](Cc2ccccc2)C(=O)OCc2ccccc2)cc1` (Tos-[Sar]-Phe-OBn) had a melting point of 80 to 82 °C.
The value for `Nc1ncc(Br)cc1O` was 195 to 197 °C; that for `CC(=O)N(C(C)=O)c1c(C#N)cnn1-c1c(F)cc(F)c(F)c1F` was 132 to 134 °C.
Turning to `Fc1ccc(C(Cl)(Cn2cncn2)C2(n3cncn3)CC2)cc1` (centres undefined), the melting point lay in the range of 81 to 84 °C.
In turn, `CCOC(=O)C(C(=O)CCCC(C)C)C1c2ccccc2C(=O)N1c1ccc2ccc(Cl)nc2n1` (centres undefined) had a melting point of 135 °C.
The value for `CCc1nc(SC)c(C(=O)O)n1Cc1ccc(-c2ccccc2S(=O)(=O)NC(=O)NCc2ccccc2)cc1` was 164 °C; that for `CC(C)=Nn1c(C(F)(F)F)cc(=O)n(-c2cc(Oc3ccccc3[N+](=O)[O-])c(Cl)cc2F)c1=O` was 173 to 176 °C.
As to `C#Cc1ccc2nc(Cl)c(S(=O)(=O)N=CN(CC(C)C)CC(C)C)n2n1`, the melting point was 166 to 168 °C.
The value for `C=CCSc1ccc(-c2nc3cnncc3[nH]2)c(OC)c1` was 240 °C; that for `O=C(Cc1ccc(Cl)c(Cl)c1)N(O)[C@H](CN1CCCC1)c1ccccc1` was 118 to 120 °C.
As to `CN(C)CC#CC1=Cc2ccccc2Sc2ccc(Cl)cc21`, the melting point was 118 to 120 °C.
The value for `Cc1cn(C2COC(CO)C(O)C2)c(=O)[nH]c1=O` (centres undefined) was 87 to 89 °C; that for `Cc1cccc(C)c1NC=O` was 163 to 164 °C; that for `O=C(NCCCCCCNC(=O)OC1CCCCC1)OC1CCCCC1` was 98 to 100 °C.
The value for `CN1C(=O)C(NC(=O)Nc2cccc(Br)c2)N(C)C1=O` (centres undefined) was 173 to 182 °C.
`COc1ccc(COC(=O)C2=C3[C@@H](C)[C@H](C)[C@@H]3S[C@@H]3[C@H](NC(=O)Cc4ccccc4)C(=O)N23)cc1` had a melting point of 172 to 173 °C.
Compound `OCC12OC1CC(OCc1ccccc1)C2COCc1ccccc1` (centres undefined) showed a melting point of 60 to 62 °C.
The value for `CCOC(=O)c1cnoc1-c1ccc(Cl)c(Cl)c1` was 108 to 110 °C.
`COC(=O)[C@@H](NC(=O)c1ccc(C#Cc2ccc(C=O)cc2)cc1)[C@@H](C)O` gave a melting point of 143 to 144 °C.
As for `CCOC(=O)c1[nH]c(Cl)nc1-c1ccccc1`, the melting point is 128 to 129 °C.
In the case of `CC(=O)OCC(=O)C1(OC(=O)c2ccccc2)CCC2C3CC(C)C4=CC(=O)C=CC4(C)C3C(O)CC21C` (centres undefined), the melting point was determined as 258 °C.
The value for `CCOC(=O)C=CN1CCCC1` was 37.5 to 39.5 °C.
`C=C1N(C)C(=O)OC12CCN(CC=C(c1ccccc1)c1ccccc1)CC2`: the melting point fell in the range of 126 to 127 °C.
The value for `COc1ccc(C(=O)Nc2ccccc2)cc1NC(=S)Nc1ccc(Cl)c(Cl)c1` was 174 to 175 °C; that for `COc1cc(NC(=O)C(C#N)=CNc2ccsc2)c(Cl)cc1Cl` was over 250 °C; that for `Cc1ccc(-c2cc(-c3ccc(O)c(F)c3)nc3ccc(O)cc23)cc1` was 184 to 188 °C.
The compound `COC(=O)CN1CCN(C)c2cc(Nc3ncc(Cl)c(Nc4ccccc4NS(C)(=O)=O)n3)ccc2C1` returned a melting point of 106 to 124 °C.
`N#Cc1ccc(Nn2cnnc2)cc1-c1ccoc1` registered a melting point of 199 to 200 °C.
The value for `CC(C)Oc1nc(-c2ccc(=O)n(C(C)C)n2)c(-c2ccccc2)nc1N` was 198 to 200 °C.
Take `CNS(=O)(=O)c1sc(C)cc1CC(=O)O`: the melting point came out at 138 °C.
Turning to `Cc1ccc(Cl)c(NS(=O)(=O)c2nc3nc(Cl)cc(Cl)n3n2)c1Cl`, the melting point fell in the range of 269 to 271 °C.
`CC(C)CCCC(C)C1CCC2C3CC=C4CC(NCCCNC(=O)CCCCCNc5ccc([N+](=O)[O-])cc5[N+](=O)[O-])CCC4(C)C3CCC12C` (centres undefined): the melting point lay in the range of 165 to 166 °C.
Consider `CCOC(=O)c1cnc2c(C(=O)Nc3cc4cccnc4cc3OC)csc2c1`, for which the melting point is 265 to 270 °C.
The value for `CCOC(=O)c1c(-c2ccc(F)cc2)c(-c2ccc(F)cc2)cn1C(C)C` was 49 °C.
The value for `CN(C)S(=O)(=O)Cc1ccccc1S(N)(=O)=O` was 145 to 150 °C; that for `CC(=O)C1(CCC(=O)OC(C)(C)C)CCCCC1=O` (centres undefined) was 47 to 53 °C; that for `Fc1ccc2c(c1)Oc1ccccc1S2` was 77.5 to 79 °C.
The value for `CCN(CC)c1nc(N)c2ccccc2n1` was 125 to 128 °C.
In turn, `COc1ccc2c(c1)CCc1cc(OC)ccc1N2` showed a melting point of 123 to 124 °C.
Take `N/C(=C1/Sc2ccccc2C1=O)c1ccccc1`: the melting point fell in the range of 121 to 122 °C.
`CC(C)CC1CCCCCc2c1oc(=O)c(C(c1ccccc1)C1CC1)c2O` (centres undefined) registered a melting point of 86 to 92 °C.
Turning to `O=C(O)C1CCOc2c(Cl)cc(-c3ccccc3)cc21` (centres undefined), the melting point is 187 to 188 °C.
The compound `CC(C)=NOCc1nc2c(N)nc3cccnc3c2n1CCCNC(=O)NC1CCCCC1` showed a melting point of 207 to 208 °C.
The value for `N#CN=C1NCCN1CC#CCNC(=O)C(O)(c1ccccc1)C1CCCCC1` (centres undefined) was 207 to 210 °C; that for `NC(=O)c1ccccc1NC(=S)NC(=O)c1ccccc1` was 190 to 192 °C; that for `CCOC(=O)C=CC(=O)Nc1ccc2c(Nc3cccc(Br)c3)ncnc2c1` was over 260 °C.
The value for `c1ccc(C2(Cn3cncn3)OCCO2)cc1` was 127 °C; that for `COc1cc(C(=O)Cl)ccc1NC(=O)c1ccccc1-c1ccccc1` was 121 to 123 °C.
For the compound `CCCC(=O)c1cnc2c(C)cccc2c1Nc1ccccc1C`, the melting point was 110 to 112 °C.
In the case of `O=C(O)CCCCCCCOc1ccccc1`, the melting point fell in the range of 67 to 68 °C.
As to `COC(=O)C1CSC=CCCCC(=O)N1` (centres undefined), the melting point fell in the range of 160 to 161 °C.
The compound `Cc1c(C(=O)O)cnn1-c1nc(-c2cccc(C(F)(F)F)c2)cs1` gave a melting point of 227 to 228 °C.
As to `CCO[C@@H]1C[C@@H](C(=O)NC)N(S(=O)(=O)c2ccc(Cl)c(COc3cccc4c(-n5ccnc5)cc(C)nc34)c2Cl)C1`, the melting point amounted to 80 °C.
As to `CCn1cc(C(=O)O)c(=O)c2cn(C)nc21`, the melting point is 273 to 275 °C.
The value for `O=C(Nc1cccc(OC(F)(F)F)c1)NC1N=C(c2ccccc2F)c2ccccc2N(CC(=O)N2CC3CCC(CC3)C2)C1=O` (racemic) was 156 to 164 °C.
The value for `O=c1c2cc(O)c(O)cc2c2cc(O)c(O)cc2n1CCCc1ccccc1` was 155 to 158 °C; that for `CON=C(C(=O)OC)c1ccc(O)c([N+](=O)[O-])c1` was 93 to 95 °C.
Compound `CC(=O)Nc1cc(O)cc(C(C)CCCc2ccccc2)c1` (centres undefined) showed a melting point of 128 to 130 °C.
With `CC(C)n1ncnc1COc1nn2c(-c3cc(F)ccc3F)nncc2c1C(C)(C)C`, the melting point amounted to 163 °C.
Compound `Cc1cc(C#CC(C)(C)O)cc(C)c1Oc1ccc([N+](=O)[O-])c(Nc2ccc(C#N)cc2)n1` had a melting point of 114 to 116 °C.
In turn, `CCOC(=O)OC1=C(c2cc(C)ccc2C)C(=O)N(OCOC)C12CCN(OC)CC2` showed a melting point of 109 to 111 °C.
Compound `CN(C)Cc1cnn(C)c1-c1ccc(Cl)cc1C(O)c1ccccc1F` (centres undefined) gave a melting point of 125 to 127 °C.
Take `CN1NCc2c(Cl)ncnc21`: the melting point was in the range of 97 to 99 °C.
The value for `CCCCNC(=O)Nc1ccc(OC)cc1C(=O)NCC1CCN(C(c2ccccc2)c2ccccc2)CC1` was 206 to 208 °C; that for `Cc1oc(-c2ccccc2)nc1COc1ccc(C(=O)c2ccccc2)c(O)c1` was 115 to 116 °C.
The value for `c1ccc(CSc2nc3nc(-c4ccccc4)cc(-c4ccccc4)n3n2)cc1` was 122 to 124 °C.
For `Nc1ccccc1C(=O)C=CC(=O)O`, the melting point is 103 to 107 °C.

The values are drawn from a melting point compilation (Tetko et al.; mined from patent text by program, amines drawn as free bases though some values may be those of a salt).
